# Assay results from PubChem BioAssay (NCI).
#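 48-hour exposure; five concentrations; linearly interpolated endpoints. Here, GI50 denotes the concentration required for 50% inhibition of growth. TGI marks complete inhibition of growth.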
# Experiments:
# Assay in all cases: NCI anticancer screen, dose series, 48 h
# CCRF-CEM leukemia = test system: CCRF-CEM leukemia
# UACC-257 melanoma = test system: UACC-257 melanoma
# EKVX NSCLC = test system: EKVX NSCLC
# CAKI-1 renal = test system: CAKI-1 renal
# HOP-92 NSCLC = test system: HOP-92 NSCLC
# SF-268 CNS = test system: SF-268 CNS
# SK-MEL-2 melanoma = test system: SK-MEL-2 melanoma
# NCI-H460 lung = test system: NCI-H460 lung
# SW-620 colon = test system: SW-620 colon
# SK-MEL-5 melanoma = test system: SK-MEL-5 melanoma
# MOLT-4 leukemia = test system: MOLT-4 leukemia
# HCT-116 colon = test system: HCT-116 colon
# SK-MEL-28 melanoma = test system: SK-MEL-28 melanoma
# OVCAR-5 ovarian = test system: OVCAR-5 ovarian
# MCF7 breast = test system: MCF7 breast
# IGROV1 ovarian = test system: IGROV1 ovarian
# RXF 393 renal = test system: RXF 393 renal
# SNB-75 CNS = test system: SNB-75 CNS
Structure (SMILES),TGI (CCRF-CEM leukemia) [µM],TGI (UACC-257 melanoma) [µM],TGI (EKVX NSCLC) [µM],TGI (CAKI-1 renal) [µM],TGI (HOP-92 NSCLC) [µM],TGI (SF-268 CNS) [µM],TGI (SK-MEL-2 melanoma) [µM],TGI (NCI-H460 lung) [µM],TGI (SW-620 colon) [µM],TGI (SK-MEL-5 melanoma) [µM],TGI (MOLT-4 leukemia) [µM],TGI (HCT-116 colon) [µM],TGI (SK-MEL-28 melanoma) [µM],TGI (OVCAR-5 ovarian) [µM],TGI (MCF7 breast) [µM],TGI (IGROV1 ovarian) [µM],TGI (RXF 393 renal) [µM],TGI (SNB-75 CNS) [µM],GI50 (NCI-H460 lung) [µM]
CCCCC/C=C1\CCC(CN2CCOCC2)C1=O (centres undefined),29.9,24.5,29.7,9.79,29,34,29.6,49.8,11.5,31.1,7.55,54.9,21.2,35.9,7.73,33,12.3,33.5,
Cc1nc(SCC(=O)Nc2ccccc2)c2sc(=S)n(-c3ccccc3)c2n1,> 10,> 10,> 10,> 10,> 10,> 10,> 10,> 10,> 10,> 10,> 10,> 10,> 10,> 10,> 10,> 10,> 10,> 10,
C/C(=N/NC(=S)Nc1cccc(Cl)c1)c1cccc(/C(C)=N\NC(=S)Nc2cccc(Cl)c2)n1,16.2,56,> 39.7,> 48.1,> 100,> 47.8,> 43.9,> 44.7,> 100,35,8.67,> 35.4,> 100,> 85.8,8.94,> 75.2,> 43.9,40.8,
CCCCCCCCCCCCCCCCCCNc1ccn(C2OC(COP(=O)(O)OCCCCCCCCCCCCCCCC)C(O)C2O)c(=O)n1 (centres undefined),> 100,> 100,> 100,> 100,> 100,> 100,> 100,,> 100,,> 100,> 100,> 100,> 100,> 100,> 100,> 100,> 100,
Cc1ccc2c(c1)C(=O)C1(C2)Cc2ccc(C)cc2C1=O,> 100,> 100,> 100,> 100,> 100,> 100,> 100,> 100,> 100,> 100,> 100,> 100,,> 100,> 100,> 100,> 100,> 100,
COC(=O)c1ccc(NCc2cc(O)c3ccccc3c2O)cc1,16.3,20.5,48.7,13.4,9.97,> 73.1,43.2,24.5,32.3,3.15,9.73,38.4,18.3,50.9,21.3,25.5,48.9,56.6,
c1ccc(SCCP(CCP(c2ccccc2)c2ccccc2)c2ccccc2)cc1 (centres undefined),> 100,> 74.7,> 67.5,63.3,15.1,> 100,7.52,> 100,> 100,33.8,81.5,> 24.3,> 100,> 100,> 100,> 100,> 100,> 19.6,
CCOC(=O)c1c(N2CCOCC2)[nH]c(=O)c(C(c2ccc(N(C)C)cc2)c2c(O)c(C(=O)OCC)c(N3CCOCC3)[nH]c2=O)c1O,> 100,> 100,> 100,> 100,> 100,> 100,> 100,> 100,> 100,> 100,> 100,> 100,> 100,> 100,> 100,,> 100,> 100,
COc1cccc(NC(=O)c2c(SC)n[nH]c2N)c1,> 100,> 100,> 100,> 100,> 100,> 100,> 100,> 100,> 100,> 100,> 100,> 100,> 100,> 100,> 100,> 100,> 100,> 100,
CCCC/C=C1\CCC(CN2CCOCC2)C1=O (centres undefined),3.35,13.5,28.3,3.74,3.72,36.3,23.8,38.2,5.13,26.9,10.7,5.55,7.97,32.9,4.93,29.2,2.89,20.7,
CC(C)C(OC(=O)c1cc(NC(=S)c2ccccc2)ccc1Cl)C(C)C,> 96.7,58.5,> 86.4,51.9,34.4,82,52.6,47.4,> 89.6,29.9,> 64.2,40.8,> 90,> 100,> 100,> 100,37.1,59.1,
COc1cc(CSc2ccc(O)cc2)cc(O)c1O,87,> 100,> 100,91.2,50.4,95.9,79.1,,> 100,,> 100,49.7,> 100,53.4,33.8,> 100,> 100,> 100,
COc1cccc2c1[C@H](OC)[C@]13O[C@@]1(C2=O)[C@H](O)[C@H](C)[C@@](O)(C(=O)[C@@H]1O[C@H]1C)[C@@H]3O,0.555,0.527,0.616,0.88,0.723,1.22,0.384,0.617,,0.386,> 47.6,,0.654,2.05,4.86,0.576,1.1,0.544,0.211
Cc1nnc2sc(-c3ccc(N)cc3)nn12,> 100,> 100,> 100,> 100,> 100,> 100,> 100,> 100,> 100,> 100,> 100,> 100,> 100,> 100,> 100,> 100,> 100,95.7,
COc1ccc(C(=O)N=C2N(c3ccccc3)C(=Nc3ccccc3)C(=Nc3ccccc3)N2c2ccccc2)cc1,> 100,> 100,> 100,> 100,15,> 100,98.1,> 100,> 100,> 56.7,> 100,> 100,> 66.6,> 100,> 100,> 100,25.8,27.2,
COc1ccc(C(F)(F)F)cc1NC(=O)O/N=C(/Cl)C(C)C,31.9,42.5,33.6,3.18,18.9,53.7,35.6,> 64.2,> 21.4,25.5,6.2,35.4,48.5,39.1,> 55.9,36.2,36.8,44.4,
O=C(/C=C/c1ccc(O)c(O)c1)Oc1ccccc1,42.8,> 81.8,> 72.9,32.5,47.6,32,44,51,> 100,33,> 48.4,34.6,> 100,> 96.3,64.9,30.6,40.1,44.2,
COc1ccc(/C=C/c2cc(=O)cc(/C=C/c3ccc(OC)c(O)c3)o2)cc1O,5.91,3.78,13.3,12,13.5,> 75.9,7.99,5.73,> 21.8,4.98,4.9,7,> 100,24,5,13.3,2.96,22.6,
OC(CCN1CCN(CCOC(c2ccc(F)cc2)c2ccc(F)cc2)CC1)c1ccccc1 (centres undefined),45.6,42.5,26.1,33.6,23.8,31.2,30.1,35.4,57.4,21,29.1,26.2,35.7,27.8,35.6,27.1,24.1,27.5,
COC(=O)C1=C(O)C(C(=O)OC)[C@@]2(O)[C@@H](C(=O)OC)C(c3ccc(OC(=O)/C(=C/c4ccccc4)c4ccccc4)cc3)C[C@@H]1[C@@H]2C(=O)OC (some centres undefined),> 100,> 100,> 100,> 100,> 100,> 100,46.2,> 100,> 100,> 100,> 100,> 100,> 100,> 100,> 100,> 100,63.1,35.6,
COC(=O)c1ccc(/C=N/c2cc(C)nn2-c2ccccc2)cc1,> 100,20.4,> 100,> 100,> 100,> 100,> 100,37.3,> 100,83.2,> 100,> 100,> 100,> 100,> 100,> 100,> 100,96.8,
Cc1ccc(-c2n[nH]c(CC#N)n2)cc1,> 100,> 100,> 100,> 100,> 100,> 100,> 100,> 100,> 100,> 100,> 100,> 100,> 100,> 100,> 100,> 100,> 100,> 100,
COc1ccc(-c2c(N)n(-c3cc(OC)cc(OC)c3)c(=O)c3cc([N+](=O)[O-])ccc23)cc1,> 100,> 100,> 100,> 31.6,34.1,> 100,> 100,> 100,> 100,> 100,> 100,> 100,> 100,> 100,> 100,> 100,> 100,> 100,
CCN(CC)CC1CCCCN1CC(=O)N1c2ccc(Br)cc2C(=O)Nc2cccnc21 (centres undefined),> 100,> 100,> 100,> 100,> 100,> 100,> 100,> 100,,> 100,> 100,> 100,> 100,> 100,> 100,> 100,> 100,59.4,
c1ccc(N=C2SC(c3ccccc3)CN2C23CC4CC(CC(C4)C2)C3)cc1 (centres undefined),> 100,> 100,> 100,> 100,> 100,> 100,> 100,> 100,> 100,> 100,> 100,> 100,> 100,> 100,> 100,> 100,> 100,> 100,
C[C@@H]1O[C@@H]2OCC[C@@H]2C2=C1C(=O)c1ccccc1C2=O,33.8,24.5,39.9,29.8,18.9,16.9,25.7,31.9,15.2,19.2,> 100,,51.5,4.3,2.81,10.8,13.3,41.9,
